Patent US11484576B2, “Methods of promoting corticospinal neuronal outgrowth in neuronal lesions using a pro-regenerative human osteopontin fragment” (THE CHILDREN'S MEDICAL CENTER CORPORATION, priority 2017, dated 2022)

Key:
[1] = tested on: mice with T10 lateral hemisection; assay: Irregular ladder walking after spinal cord T10 lateral hemisection; assay type: in vivo, mouse; conditions: OPN/IGF1 treated group, T10 hemisection
Procedure: (§1) Injury Models. […] Briefly, a midline incision was made over the thoracic vertebrae, followed by a T10 laminectomy. The unilateral hemisection was then performed carefully using both scalpel and micro-scissors, avoiding, to the greatest extent, the damage of the spinal cord dura. The muscle layers were then sutured and the skin was secured with wound clips. All mice received post hoc histological analysis and those with spared CST axons (incomplete lateral hemisection) or with significant less CST axons on the contra-lesional side (over lateral hemisection) at the lumbar spinal cord (L3), exemplified in FIG. 9A, were excluded for behavioral analysis.
Virus and Protein Injection.
Irregular Ladder Walking. […] Briefly, the ladder was elevated 30 cm above the ground. […] To prevent animals from learning the pattern, the irregular pattern was changed from trial to trial. All trials were video recorded (Hotshot e64, 100 fps) and paw placement was analyzed twice by blinded observers. Steps with precise placement of the center of the palm on the rung (for both forelimbs and hindlimbs) and digits closed (for forelimbs) were defined as correct steps (hit). All other steps were recorded as errors, which included two types: 1) Miss: when crossing the ladder, the forelimb/hindlimb either completely miss the rung or contact the rung with the wrist/heel instead of the paw; 2) Slip: when crossing the ladder, the mice use a few digits instead of the paw to place on the rungs, causing the subsequent slip on the rungs. The results were expressed as both percentage of total errors and percentage of different placement categories (hit, miss and slip).
(§2) Pharmacological Treatment. […] All behavioral tests were then accomplished between 1-3 hours post administration.

[2] = tested on: mice with T10 lateral hemisection; assay: Ground walking and treadmill walking after T10 lateral hemisection; assay type: in vivo, mouse; conditions: i.p.
Procedure: as §1, §2

[3] = tested on: mice with unilateral photothrombotic stroke; assay: Single pellet retrieval and irregular ladder walking after unilateral photothrombotic cortical stroke; assay type: in vivo, mouse; conditions: ischemic mice treated with OPN/IGF1
Excerpt: The procedure of unilateral photothrombotic stroke was similar to that described elsewhere (Watson et al., 1985; Wahl et al., 2014). Briefly, mice were fixed in a stereotactic frame, with the skull exposed. To unilaterally cover the sensoromotor cortex, the cold light source (Zeiss, CL 1500HAL, 3000K) was positioned over an opaque template with an opening (a circle with a diameter of 2.5 mm) centered at (−0.5, 2.0 mm, anterior and lateral to the bregma) on the cortex contralateral to the preferred paw in the food pellet retrieval task. […] Lesion volumes were calculated when mice brains were fixed at the end point of the experiments.
Irregular Ladder Walking. […] All trials were video recorded (Hotshot e64, 100 fps) and paw placement was analyzed twice by blinded observers. […] All other steps were recorded as errors, which included two types: 1) Miss: when crossing the ladder, the forelimb/hindlimb either completely miss the rung or contact the rung with the wrist/heel instead of the paw; 2) Slip: when crossing the ladder, the mice use a few digits instead of the paw to place on the rungs, causing the subsequent slip on the rungs. The results were expressed as both percentage of total errors and percentage of different placement categories (hit, miss and slip).
Single pellet Retrieval. […] The success rate was calculated as: number of successful retrievals/total attempts per trail *100. […]

[4] = tested on: injured mice; assay: Adverse effects of systemic potassium channel blockers in injured mice; assay type: in vivo; conditions: injured mice treated with OPN/IGF1
Procedure: Chemicals and Antibodies. For systematic administration (i.p.), Quipazine [Sigma (Q1004), 0.2 mg/kg), SKF-82197 [Tocris (1447) 0.1 mg/kg], and 8-OH-DPAT [Tocris (0529), 0.1 mg/kg), 4AP [Sigma (275875), 1 mg/kg, 3 mg/kg), 4AP-MeOH [Santa Cruz (sc-267247), (1 mg/kg)] were dissolved in saline. Tamoxifen (Sigma, 10540-29-1) was dissolved in oil. For diphtheria toxin mediated cell ablation, we purchased the diptheria toxin from Sigma (D0564). For immunostaining, the primary antibody used were chicken anti-GFP [Abcam (Cat: ab13970)], rabbit anti-RFP [Abcam (Cat: ab34771)], rabbit anti-PKCγ [Santa Cruz (sc211)], rabbit anti-GFAP [DAKO (Z0334)]; rabbit anti-5-HT [Immunostar (20080)], rabbit-anti-IGFR [Santa Cruz (sc-712)] rabbit-anti-pIGFR[3 [Cell signaling technology (3024)], rabbit-anti-pS6 [Cell signaling technology (4857)], rat anti-CD68 [Bio-Rad (MCA 1957)], and Guinea pig-anti-Vglut1 [Synaptic Systems (135304)].
Pharmacological Treatment. […] A pilot experiment was performed and determined that 4AP (1 mg/kg, 3 mg/kg) and 4AP-MeOH (1 mg/kg) achieved their maximal effects within 1-3 hours post systematic administration (i.p.). […]

Nc1ccncc1CO [4-AP-MeOH, 4-aminopyridine-3-methanol]
error rate, irregular ladder walking, after 4-AP-MeOH ([1]; 1 mg/kg i.p.): 30% | error rate, irregular ladder walking, before 4-AP-MeOH [1]: about 48% | recovery of treadmill walking performance compared to the control [2]: neither 4-AP nor 4-AP-MeOH had significant effects | additional effect on single pellet retrieval and irregular ladder walking [3]: further improvements on both assays | effect and safety compared to 4-AP [4]: significantly better effects with broader safety doses
